# ChEMBL document CHEMBL5291721, “A preclinical secondary pharmacology resource illuminates target-adverse drug reaction associations of marketed drugs” (Nat Commun, 2023)
# How the values were obtained:
# [1] = target: T1, Muscarinic acetylcholine receptor M1 (Homo sapiens, UniProt P11229); format: functional, cell-based
# T1 sequence (P11229 whole entry): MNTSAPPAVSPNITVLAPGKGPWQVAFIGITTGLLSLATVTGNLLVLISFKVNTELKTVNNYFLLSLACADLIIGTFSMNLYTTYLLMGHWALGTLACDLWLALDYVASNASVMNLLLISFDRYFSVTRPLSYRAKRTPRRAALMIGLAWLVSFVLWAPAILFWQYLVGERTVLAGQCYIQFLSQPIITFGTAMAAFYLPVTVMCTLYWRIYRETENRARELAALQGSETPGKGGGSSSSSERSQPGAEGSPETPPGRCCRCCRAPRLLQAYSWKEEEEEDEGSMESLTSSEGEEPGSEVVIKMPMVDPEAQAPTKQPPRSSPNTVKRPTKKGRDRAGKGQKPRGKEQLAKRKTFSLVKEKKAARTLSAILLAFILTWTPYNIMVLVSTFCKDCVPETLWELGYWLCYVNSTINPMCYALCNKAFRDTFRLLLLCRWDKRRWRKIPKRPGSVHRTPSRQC
# Histamine H3 receptor [2] = target: T2, Histamine H3 receptor (Homo sapiens, UniProt Q9Y5N1)
# T2 sequence (Q9Y5N1 whole entry): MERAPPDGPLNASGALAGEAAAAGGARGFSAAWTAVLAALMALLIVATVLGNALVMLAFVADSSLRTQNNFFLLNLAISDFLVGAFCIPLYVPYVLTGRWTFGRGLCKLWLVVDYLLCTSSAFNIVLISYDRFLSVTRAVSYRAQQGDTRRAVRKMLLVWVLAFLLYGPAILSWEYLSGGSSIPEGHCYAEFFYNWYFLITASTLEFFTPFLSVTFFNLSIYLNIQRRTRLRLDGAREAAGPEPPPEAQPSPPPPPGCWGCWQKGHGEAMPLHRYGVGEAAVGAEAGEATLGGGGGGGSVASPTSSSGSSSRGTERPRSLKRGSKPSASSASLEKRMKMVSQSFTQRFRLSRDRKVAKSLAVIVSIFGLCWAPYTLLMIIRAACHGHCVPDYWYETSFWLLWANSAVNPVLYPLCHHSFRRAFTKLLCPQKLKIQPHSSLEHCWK
# [3] = target: T3, Alpha-1A adrenergic receptor (Homo sapiens, UniProt P35348)
# T3 sequence (P35348 whole entry): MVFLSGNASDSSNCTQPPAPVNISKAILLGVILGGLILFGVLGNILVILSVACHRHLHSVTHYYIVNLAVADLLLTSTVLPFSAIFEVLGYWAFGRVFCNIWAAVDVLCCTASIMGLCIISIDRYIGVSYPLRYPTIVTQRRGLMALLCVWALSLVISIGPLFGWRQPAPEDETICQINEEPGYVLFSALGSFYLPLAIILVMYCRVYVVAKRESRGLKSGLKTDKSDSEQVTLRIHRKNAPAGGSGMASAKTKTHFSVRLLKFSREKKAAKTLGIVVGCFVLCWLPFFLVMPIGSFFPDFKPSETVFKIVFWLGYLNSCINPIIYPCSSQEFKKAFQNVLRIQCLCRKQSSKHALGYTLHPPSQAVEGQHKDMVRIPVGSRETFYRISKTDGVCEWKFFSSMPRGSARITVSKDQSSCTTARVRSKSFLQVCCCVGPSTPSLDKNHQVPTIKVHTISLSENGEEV
# [4] = target: T4, 5-hydroxytryptamine receptor 2B (Homo sapiens, UniProt P41595); format: functional, cell-based
# T4 sequence (P41595 whole entry): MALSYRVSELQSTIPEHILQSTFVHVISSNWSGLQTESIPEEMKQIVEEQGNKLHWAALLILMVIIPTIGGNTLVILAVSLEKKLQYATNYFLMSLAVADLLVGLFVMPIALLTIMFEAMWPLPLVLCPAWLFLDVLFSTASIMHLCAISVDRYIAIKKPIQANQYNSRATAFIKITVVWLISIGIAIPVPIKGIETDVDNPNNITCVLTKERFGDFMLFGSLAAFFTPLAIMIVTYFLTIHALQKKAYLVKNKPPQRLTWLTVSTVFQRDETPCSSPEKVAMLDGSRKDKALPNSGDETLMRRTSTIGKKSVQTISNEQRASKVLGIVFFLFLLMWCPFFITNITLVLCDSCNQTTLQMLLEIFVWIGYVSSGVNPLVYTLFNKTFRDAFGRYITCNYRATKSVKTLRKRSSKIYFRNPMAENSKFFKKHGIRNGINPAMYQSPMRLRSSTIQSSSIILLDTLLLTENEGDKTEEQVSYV
# Histamine H3 receptor [5] = target: T2, Histamine H3 receptor; remark: listed apart in the source
# [6] = target: T3, Alpha-1A adrenergic receptor; format: functional, cell-based
# [7] = target: T5, Muscarinic acetylcholine receptor M2 (Homo sapiens, UniProt P08172); format: functional, cell-based
# T5 sequence (P08172 whole entry): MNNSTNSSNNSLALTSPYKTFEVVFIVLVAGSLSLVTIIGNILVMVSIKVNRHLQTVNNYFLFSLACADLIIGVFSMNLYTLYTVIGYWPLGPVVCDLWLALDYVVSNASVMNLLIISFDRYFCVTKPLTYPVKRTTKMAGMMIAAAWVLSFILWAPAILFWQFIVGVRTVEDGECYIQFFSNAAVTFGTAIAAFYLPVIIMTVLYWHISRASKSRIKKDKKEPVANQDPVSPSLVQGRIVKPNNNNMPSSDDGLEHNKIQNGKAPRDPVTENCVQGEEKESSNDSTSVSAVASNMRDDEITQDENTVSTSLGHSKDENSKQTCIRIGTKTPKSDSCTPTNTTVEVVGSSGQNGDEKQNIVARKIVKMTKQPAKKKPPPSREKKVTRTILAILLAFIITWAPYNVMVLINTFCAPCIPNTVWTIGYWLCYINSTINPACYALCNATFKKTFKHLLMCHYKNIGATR
# Cannabinoid receptor 1 = Cannabinoid receptor 1 (Homo sapiens, UniProt P21554); format: functional, cell-based
# Cannabinoid receptor 1, sequence (P21554 whole entry): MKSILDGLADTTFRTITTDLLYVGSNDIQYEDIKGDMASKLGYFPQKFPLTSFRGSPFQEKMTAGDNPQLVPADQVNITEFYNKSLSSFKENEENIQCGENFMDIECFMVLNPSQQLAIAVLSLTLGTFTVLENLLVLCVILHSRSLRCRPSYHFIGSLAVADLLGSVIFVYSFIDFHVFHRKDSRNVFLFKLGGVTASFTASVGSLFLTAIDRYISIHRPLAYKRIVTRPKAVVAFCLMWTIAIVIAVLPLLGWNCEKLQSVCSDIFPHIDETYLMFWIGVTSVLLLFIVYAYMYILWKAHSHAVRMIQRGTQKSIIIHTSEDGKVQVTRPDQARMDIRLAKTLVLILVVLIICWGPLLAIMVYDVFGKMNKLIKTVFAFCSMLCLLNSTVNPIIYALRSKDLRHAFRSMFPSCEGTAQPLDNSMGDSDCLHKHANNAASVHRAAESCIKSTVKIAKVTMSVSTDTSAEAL
# [8] = target: T5, Muscarinic acetylcholine receptor M2
# [9] = target: 3',5'-cyclic-AMP phosphodiesterase 4A (Homo sapiens, UniProt P27815); format: functional
# 3',5'-cyclic-AMP phosphodiesterase 4A, sequence (P27815 whole entry): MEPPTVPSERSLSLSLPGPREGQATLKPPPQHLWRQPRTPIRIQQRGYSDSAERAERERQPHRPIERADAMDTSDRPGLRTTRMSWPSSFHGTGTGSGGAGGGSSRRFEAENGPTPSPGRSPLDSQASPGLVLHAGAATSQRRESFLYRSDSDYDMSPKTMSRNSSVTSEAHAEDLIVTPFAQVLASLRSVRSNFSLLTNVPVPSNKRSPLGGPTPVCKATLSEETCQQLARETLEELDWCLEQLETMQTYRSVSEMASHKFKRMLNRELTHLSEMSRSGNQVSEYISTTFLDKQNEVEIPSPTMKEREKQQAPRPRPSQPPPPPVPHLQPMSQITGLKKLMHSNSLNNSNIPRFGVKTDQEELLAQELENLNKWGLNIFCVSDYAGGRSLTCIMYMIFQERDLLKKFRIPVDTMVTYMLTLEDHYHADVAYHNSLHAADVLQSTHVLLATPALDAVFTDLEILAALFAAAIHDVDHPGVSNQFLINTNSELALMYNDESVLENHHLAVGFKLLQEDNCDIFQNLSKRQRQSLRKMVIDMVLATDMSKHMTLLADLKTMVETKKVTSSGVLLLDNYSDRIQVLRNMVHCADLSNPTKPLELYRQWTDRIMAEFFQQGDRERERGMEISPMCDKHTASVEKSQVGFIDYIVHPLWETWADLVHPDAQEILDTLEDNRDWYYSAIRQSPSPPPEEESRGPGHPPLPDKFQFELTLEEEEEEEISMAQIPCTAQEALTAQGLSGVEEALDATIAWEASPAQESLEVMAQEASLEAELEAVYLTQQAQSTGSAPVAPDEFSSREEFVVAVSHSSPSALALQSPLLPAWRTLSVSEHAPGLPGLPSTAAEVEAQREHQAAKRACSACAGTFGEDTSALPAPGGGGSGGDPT
# [10] = target: T6, Gamma-aminobutyric acid receptor subunit alpha-1 (Rattus norvegicus, UniProt P62813); format: functional
# T6 sequence (P62813 whole entry): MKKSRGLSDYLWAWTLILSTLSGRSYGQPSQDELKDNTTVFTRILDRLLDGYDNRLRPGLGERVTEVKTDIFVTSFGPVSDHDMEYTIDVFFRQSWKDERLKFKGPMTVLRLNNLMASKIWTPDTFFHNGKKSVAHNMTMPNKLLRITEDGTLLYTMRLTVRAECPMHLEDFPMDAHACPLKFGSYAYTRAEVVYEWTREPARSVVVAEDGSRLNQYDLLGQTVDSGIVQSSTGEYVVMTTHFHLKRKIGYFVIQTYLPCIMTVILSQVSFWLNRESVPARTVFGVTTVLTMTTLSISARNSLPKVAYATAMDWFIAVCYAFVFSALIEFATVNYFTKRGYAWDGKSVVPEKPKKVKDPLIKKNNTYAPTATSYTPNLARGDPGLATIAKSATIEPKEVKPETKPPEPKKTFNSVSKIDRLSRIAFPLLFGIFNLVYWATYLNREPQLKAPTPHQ
# [11] = target: T3, Alpha-1A adrenergic receptor; format: functional, cell-based; remark: listed apart in the source
# [12] = target: T4, 5-hydroxytryptamine receptor 2B; format: functional, cell-based; remark: listed apart in the source
# Acetylcholinesterase = Acetylcholinesterase (Homo sapiens, UniProt P22303); format: functional
# Acetylcholinesterase, sequence (P22303 whole entry): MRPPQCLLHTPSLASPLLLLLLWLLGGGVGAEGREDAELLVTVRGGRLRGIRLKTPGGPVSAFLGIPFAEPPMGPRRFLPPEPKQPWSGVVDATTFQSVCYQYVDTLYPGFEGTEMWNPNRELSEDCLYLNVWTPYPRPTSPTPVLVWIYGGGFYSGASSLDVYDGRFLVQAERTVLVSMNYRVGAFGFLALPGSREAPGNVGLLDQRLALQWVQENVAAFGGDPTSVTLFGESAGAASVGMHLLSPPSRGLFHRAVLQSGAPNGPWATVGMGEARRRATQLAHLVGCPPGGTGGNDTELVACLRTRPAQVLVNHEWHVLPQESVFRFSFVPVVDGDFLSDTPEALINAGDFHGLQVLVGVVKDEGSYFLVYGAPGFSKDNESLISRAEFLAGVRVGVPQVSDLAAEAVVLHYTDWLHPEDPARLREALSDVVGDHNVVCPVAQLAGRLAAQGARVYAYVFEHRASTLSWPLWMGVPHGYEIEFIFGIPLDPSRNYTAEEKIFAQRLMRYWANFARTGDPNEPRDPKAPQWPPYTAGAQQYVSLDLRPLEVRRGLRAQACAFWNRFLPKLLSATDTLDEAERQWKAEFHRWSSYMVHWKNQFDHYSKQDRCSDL
# [13] = target: T6, Gamma-aminobutyric acid receptor subunit alpha-1
# [14] = target: Vascular endothelial growth factor receptor 2 (Homo sapiens, UniProt P35968); format: functional
# Vascular endothelial growth factor receptor 2, sequence (P35968 whole entry): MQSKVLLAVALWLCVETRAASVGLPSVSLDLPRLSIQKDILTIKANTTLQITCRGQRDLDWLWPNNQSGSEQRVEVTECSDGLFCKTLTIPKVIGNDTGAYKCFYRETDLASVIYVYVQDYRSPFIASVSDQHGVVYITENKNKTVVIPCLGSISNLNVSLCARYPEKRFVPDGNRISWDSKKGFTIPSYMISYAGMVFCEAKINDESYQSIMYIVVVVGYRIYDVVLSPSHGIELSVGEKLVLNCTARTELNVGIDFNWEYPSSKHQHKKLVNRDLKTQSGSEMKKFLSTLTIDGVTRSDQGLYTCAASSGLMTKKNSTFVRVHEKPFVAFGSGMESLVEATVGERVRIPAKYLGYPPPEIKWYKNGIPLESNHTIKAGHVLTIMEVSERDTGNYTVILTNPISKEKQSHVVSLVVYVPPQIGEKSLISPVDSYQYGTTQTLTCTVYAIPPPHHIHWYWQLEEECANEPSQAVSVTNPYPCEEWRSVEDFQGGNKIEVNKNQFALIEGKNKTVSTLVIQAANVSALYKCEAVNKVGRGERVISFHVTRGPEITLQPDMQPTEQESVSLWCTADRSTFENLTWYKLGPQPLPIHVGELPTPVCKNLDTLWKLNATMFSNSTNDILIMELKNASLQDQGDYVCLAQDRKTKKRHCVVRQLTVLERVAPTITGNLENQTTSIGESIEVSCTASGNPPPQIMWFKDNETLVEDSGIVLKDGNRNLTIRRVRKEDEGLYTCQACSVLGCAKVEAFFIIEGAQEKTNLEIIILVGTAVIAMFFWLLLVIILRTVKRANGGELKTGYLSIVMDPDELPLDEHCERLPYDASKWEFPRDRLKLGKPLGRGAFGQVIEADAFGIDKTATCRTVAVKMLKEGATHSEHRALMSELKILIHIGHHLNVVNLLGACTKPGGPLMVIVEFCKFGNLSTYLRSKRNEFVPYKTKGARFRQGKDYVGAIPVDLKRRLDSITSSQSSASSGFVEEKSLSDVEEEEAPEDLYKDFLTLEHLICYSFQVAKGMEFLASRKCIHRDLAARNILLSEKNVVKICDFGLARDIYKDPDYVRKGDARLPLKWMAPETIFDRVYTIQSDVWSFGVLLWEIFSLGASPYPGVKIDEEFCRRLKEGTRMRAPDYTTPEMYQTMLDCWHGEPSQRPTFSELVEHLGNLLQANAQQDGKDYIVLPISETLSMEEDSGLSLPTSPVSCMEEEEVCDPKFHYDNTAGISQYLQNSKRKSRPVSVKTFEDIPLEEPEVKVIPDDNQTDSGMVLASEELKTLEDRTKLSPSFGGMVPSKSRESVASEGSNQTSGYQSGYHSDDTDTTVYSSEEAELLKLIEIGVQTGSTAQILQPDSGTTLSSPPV
# Also: assay procedure not described here.
compound,measurement,setting,value
CCC(=O)O[C@]1(C(=O)SCF)[C@H](C)C[C@H]2[C@@H]3C[C@H](F)C4=CC(=O)C=C[C@]4(C)[C@@]3(F)[C@@H](O)C[C@@]21C [FLUTICASONE PROPIONATE],AC50,[1],> 30 µM
same,AC50,Histamine H3 receptor [2],> 30 µM
same,AC50,[3],> 10 µM
same,AC50,[4],> 30 µM
same,AC50,Histamine H3 receptor [5],> 30 µM
same,AC50,[6],> 30000 nM
same,AC50,[7],> 30 µM
same,AC50,Cannabinoid receptor 1,> 30 µM
same,AC50,[8],> 30 µM
same,AC50,[9],> 30 µM
same,AC50,[10],> 30 µM
same,AC50,[11],> 30 µM
same,AC50,[12],> 30 µM
same,AC50,Acetylcholinesterase,> 30 µM
same,AC50,[13],> 30 µM
same,AC50,[14],> 30 µM
CCOC(=O)[C@H](CCc1ccccc1)N[C@@H](C)C(=O)N(CC(=O)O)C1Cc2ccccc2C1,AC50,[1],> 30 µM
same,AC50,Histamine H3 receptor [2],> 30 µM
same,AC50,[8],> 30 µM
same,AC50,[9],> 30 µM
same,AC50,[11],> 30 µM
same,AC50,[12],> 30 µM
same,AC50,Acetylcholinesterase,> 30 µM
same,AC50,[14],> 30 µM
Cc1ncc(COP(=O)(O)O)c(C=O)c1O [PYRIDOXAL PHOSPHATE ANHYDROUS],AC50,[1],> 30 µM
same,AC50,Histamine H3 receptor [2],> 30 µM
same,AC50,[8],> 30 µM
same,AC50,[9],19.5 µM
same,AC50,[11],> 30 µM
same,AC50,[12],> 30 µM
same,AC50,Acetylcholinesterase,> 30 µM
same,AC50,[14],> 30 µM
C[C@H](Cc1cc2c(c(C(N)=O)c1)N(CCCO)CC2)NCCOc1ccccc1OCC(F)(F)F [SILODOSIN],AC50,[1],> 30 µM
same,AC50,Histamine H3 receptor [2],> 30 µM
same,AC50,[6],2.9 nM
same,AC50,[8],> 30 µM
same,AC50,[9],> 30 µM
same,AC50,[11],0.003 µM
same,AC50,[12],> 30 µM
same,AC50,Acetylcholinesterase,> 30 µM
same,AC50,[14],> 30 µM
COc1cc2c(cc1OC)CC(=O)N(CCCN(C)C[C@H]1Cc3cc(OC)c(OC)cc31)CC2 [IVABRADINE],AC50,[1],> 30 µM
same,AC50,Histamine H3 receptor [2],> 30 µM
same,AC50,[8],3.35 µM
same,AC50,[9],> 30 µM
same,AC50,[11],> 30 µM
same,AC50,[12],> 30 µM
same,AC50,Acetylcholinesterase,> 30 µM
same,AC50,[14],> 30 µM
CC(N)Cc1ccc(O)cc1 (stereo not given) [HYDROXYAMPHETAMINE],AC50,[1],> 30 µM
same,AC50,Histamine H3 receptor [2],> 30 µM
same,AC50,[8],> 30 µM
same,AC50,[9],> 30 µM
same,AC50,[11],> 30 µM
same,AC50,[12],> 30 µM
same,AC50,Acetylcholinesterase,> 30 µM
same,AC50,[14],> 30 µM
CCN(CCCc1ccccc1)CCCc1ccccc1 [ALVERINE],AC50,[1],0.198 µM
same,AC50,Histamine H3 receptor [2],> 30 µM
same,AC50,[8],0.134 µM
same,AC50,[9],> 30 µM
same,AC50,[11],0.978 µM
same,AC50,[12],> 30 µM
same,AC50,Acetylcholinesterase,> 30 µM
same,AC50,[14],> 30 µM
CC(C)N(CCNC(=O)CN1CCCC1=O)C(C)C,AC50,[1],> 30 µM
same,AC50,Histamine H3 receptor [2],> 30 µM
same,AC50,[8],> 30 µM
same,AC50,[9],> 30 µM
same,AC50,[11],> 30 µM
same,AC50,[12],> 30 µM
same,AC50,Acetylcholinesterase,> 30 µM
same,AC50,[14],> 30 µM
Cc1cc(NC(=O)C2=C(O)c3ccccc3S(=O)(=O)N2C)no1 [ISOXICAM],AC50,[1],> 30 µM
same,AC50,Histamine H3 receptor [2],> 30 µM
same,AC50,[8],> 30 µM
same,AC50,[9],> 30 µM
same,AC50,[11],> 30 µM
same,AC50,[12],> 30 µM
same,AC50,Acetylcholinesterase,> 30 µM
same,AC50,[14],24.4 µM
NC(=O)OCC(O)COc1ccc(Cl)cc1 (stereo not given) [CHLORPHENESIN CARBAMATE],AC50,[1],> 30 µM
same,AC50,Histamine H3 receptor [2],> 30 µM
same,AC50,[8],> 30 µM
same,AC50,[9],> 30 µM
same,AC50,[11],> 30 µM
same,AC50,[12],> 30 µM
same,AC50,Acetylcholinesterase,> 30 µM
same,AC50,[14],> 30 µM
CN(C)CCOC(c1ccccc1)c1ccc(Br)cc1 (stereo not given) [BROMODIPHENHYDRAMINE],AC50,[1],1.49 µM
same,AC50,Histamine H3 receptor [2],> 30 µM
same,AC50,[8],1.42 µM
same,AC50,[9],> 30 µM
same,AC50,[11],> 10 µM
same,AC50,[12],> 30 µM
same,AC50,Acetylcholinesterase,> 30 µM
same,AC50,[14],> 30 µM
CCC(=O)O[C@]1(C(=O)CCl)[C@@H](C)C[C@H]2[C@@H]3C[C@H](F)C4=CC(=O)C=C[C@]4(C)[C@@]3(F)[C@@H](O)C[C@@]21C [HALOBETASOL PROPIONATE],AC50,[1],14.9 µM
same,AC50,Histamine H3 receptor [2],> 30 µM
same,AC50,[8],> 30 µM
same,AC50,[9],> 30 µM
same,AC50,[11],13.1 µM
same,AC50,[12],> 30 µM
same,AC50,Acetylcholinesterase,> 30 µM
same,AC50,[14],> 30 µM
